Data published in publication PMC6232110, “Two novel, putative mechanisms of action for citalopram-induced platelet inhibition” (Scientific Reports, 2018).

Key:
CalDAG-GEFI = molecular target: T1, CalDAG-GEFI (Homo sapiens, UniProt Q7LDG7); experiment: BODIPY-FL-GDP fluorescence nucleotide exchange assay with purified recombinant CalDAG-GEFI and Rap1B; assay type: biochemical
T1 construct: gene RASGRP2; recombinant 6xHis, C-terminal truncation p.(Ala552_Leu609del); with Rap1B
From the text: BODIPY-FL-GDP fluorescence nucleotide exchange assay with purified recombinant CalDAG-GEFI and Rap1B on CalDAG-GEFI | Citalopram inhibited CalDAG-GEFI-mediated BODIPY-FL-GDP exchange onto Rap1B in a concentration-dependent manner

glycoprotein VI (GPVI) = molecular target: T2, glycoprotein VI (GPVI) (Homo sapiens, UniProt Q9HCN6); experiment: Schild analysis of CRPXL-induced platelet aggregation; inhibition of anti-GPVI antibody binding by flow cytometry; assay type: cell-based; details: platelets; read-out: Kd
T2 construct: gene GP6; native GPVI on washed human platelets; with FcRγ chain
T2 sequence (Q9HCN6 21-339): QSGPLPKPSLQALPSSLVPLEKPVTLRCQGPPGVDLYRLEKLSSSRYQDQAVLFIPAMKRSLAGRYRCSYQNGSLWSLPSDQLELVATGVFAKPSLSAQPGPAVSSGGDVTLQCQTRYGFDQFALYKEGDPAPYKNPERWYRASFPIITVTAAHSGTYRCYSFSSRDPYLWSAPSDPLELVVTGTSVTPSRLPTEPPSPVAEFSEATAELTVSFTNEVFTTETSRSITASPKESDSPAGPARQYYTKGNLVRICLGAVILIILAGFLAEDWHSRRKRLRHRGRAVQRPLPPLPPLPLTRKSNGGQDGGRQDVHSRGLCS
T2 sequence (P30273 19-86 partner): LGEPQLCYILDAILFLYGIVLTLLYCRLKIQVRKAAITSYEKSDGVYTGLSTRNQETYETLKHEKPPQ

T1 sequence (P61224 1-167): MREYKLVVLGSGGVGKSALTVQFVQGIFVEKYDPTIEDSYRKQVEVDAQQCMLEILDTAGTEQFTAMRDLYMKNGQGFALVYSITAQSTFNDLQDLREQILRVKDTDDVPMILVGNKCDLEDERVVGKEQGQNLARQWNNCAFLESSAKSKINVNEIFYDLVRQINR
T1 sequence (Q7LDG7 1-551): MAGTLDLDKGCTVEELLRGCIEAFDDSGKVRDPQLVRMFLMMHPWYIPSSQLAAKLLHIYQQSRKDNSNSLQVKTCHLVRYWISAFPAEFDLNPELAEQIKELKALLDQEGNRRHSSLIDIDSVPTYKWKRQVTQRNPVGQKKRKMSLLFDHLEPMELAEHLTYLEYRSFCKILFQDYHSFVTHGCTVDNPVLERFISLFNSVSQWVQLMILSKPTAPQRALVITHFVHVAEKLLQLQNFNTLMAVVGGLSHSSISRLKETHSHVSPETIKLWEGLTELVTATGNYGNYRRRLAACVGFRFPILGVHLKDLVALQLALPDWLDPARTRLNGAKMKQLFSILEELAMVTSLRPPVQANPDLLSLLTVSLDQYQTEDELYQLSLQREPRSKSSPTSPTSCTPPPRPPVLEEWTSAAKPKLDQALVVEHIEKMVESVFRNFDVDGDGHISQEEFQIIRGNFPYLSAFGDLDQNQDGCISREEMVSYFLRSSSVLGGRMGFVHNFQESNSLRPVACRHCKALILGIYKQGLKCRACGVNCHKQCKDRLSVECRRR

**Q.** What does the source list for `CN(C)CCCC1(c2ccc(F)cc2)OCc2cc(C#N)ccc21` (racemic) [citalopram]?
**A.** IC50 (CalDAG-GEFI): 214 µM; Kb (glycoprotein VI (GPVI)): ~16 µM
